Key:
Experiment in all cases: radiometric filter-binding kinase assay
RPS6KA3 KD1 KD2 (human) = RPS6KA3 KD1 KD2 (human) (UniProt P51812)
[1] = system: RPS6KB1 (human), P23443 [T412E]
NTRK1 (human) = NTRK1 (human) (UniProt P04629)
CLK2 (human) = CLK2 (human) (UniProt P49760)
MAP2K6 (human) = MAP2K6 (human) (UniProt P52564)
MAP3K7 TAB1 (human) = MAP3K7 TAB1 (human) (UniProt Q15750+O43318)
[2] = system: SGK1 (human), O00141 [S422D]
MAPK3 (human) = MAPK3 (human) (UniProt P27361)
PIM3 (human) = PIM3 (human) (UniProt Q86V86)
BRSK2 (human) = BRSK2 (human) (UniProt Q8IWQ3)
RPS6KA1 KD1 KD2 (human) = RPS6KA1 KD1 KD2 (human) (UniProt Q15418)
STK3 (human) = STK3 (human) (UniProt Q13188)
IRAK4 (human) = IRAK4 (human) (UniProt Q9NWZ3)
IKBKB (human) = IKBKB (human) (UniProt O14920)
Sequence of IKBKB (human) (O14920 whole entry, looked up): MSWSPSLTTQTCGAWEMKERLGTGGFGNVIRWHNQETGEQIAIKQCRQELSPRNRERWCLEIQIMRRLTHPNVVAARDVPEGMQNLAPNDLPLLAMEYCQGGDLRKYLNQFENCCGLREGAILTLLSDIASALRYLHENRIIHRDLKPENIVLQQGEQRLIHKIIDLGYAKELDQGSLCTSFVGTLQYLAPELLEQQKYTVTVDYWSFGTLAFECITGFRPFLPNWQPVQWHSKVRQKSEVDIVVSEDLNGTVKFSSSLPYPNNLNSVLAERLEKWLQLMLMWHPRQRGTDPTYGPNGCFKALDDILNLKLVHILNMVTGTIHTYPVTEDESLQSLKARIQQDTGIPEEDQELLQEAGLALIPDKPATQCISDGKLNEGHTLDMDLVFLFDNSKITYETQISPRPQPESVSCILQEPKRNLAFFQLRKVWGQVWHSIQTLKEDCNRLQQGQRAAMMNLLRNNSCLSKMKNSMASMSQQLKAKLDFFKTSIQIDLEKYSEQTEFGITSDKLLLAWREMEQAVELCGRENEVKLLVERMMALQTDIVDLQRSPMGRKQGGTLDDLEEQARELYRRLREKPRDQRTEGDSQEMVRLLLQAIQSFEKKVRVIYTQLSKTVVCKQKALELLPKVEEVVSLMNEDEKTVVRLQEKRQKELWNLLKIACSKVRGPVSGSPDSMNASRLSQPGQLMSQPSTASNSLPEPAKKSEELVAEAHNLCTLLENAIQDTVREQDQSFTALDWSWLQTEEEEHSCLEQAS

[3] = system: AKT1 (human), P31749 [S473D]
MAPK14 (human) = MAPK14 (human) (UniProt Q16539)
Sequence of MAPK14 (human) (Q16539 whole entry, looked up): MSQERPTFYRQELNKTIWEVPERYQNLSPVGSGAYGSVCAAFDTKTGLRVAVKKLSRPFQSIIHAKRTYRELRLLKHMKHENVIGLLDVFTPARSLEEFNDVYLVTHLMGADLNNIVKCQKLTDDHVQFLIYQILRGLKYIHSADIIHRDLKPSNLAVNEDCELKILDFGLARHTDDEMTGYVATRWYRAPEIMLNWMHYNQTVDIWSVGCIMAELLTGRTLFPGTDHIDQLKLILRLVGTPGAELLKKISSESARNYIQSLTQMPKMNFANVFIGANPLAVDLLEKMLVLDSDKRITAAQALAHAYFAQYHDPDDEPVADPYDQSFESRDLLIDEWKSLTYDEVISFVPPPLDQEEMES

PAK4 (human) = PAK4 (human) (UniProt O96013)
Sequence of PAK4 (human) (O96013 whole entry, looked up): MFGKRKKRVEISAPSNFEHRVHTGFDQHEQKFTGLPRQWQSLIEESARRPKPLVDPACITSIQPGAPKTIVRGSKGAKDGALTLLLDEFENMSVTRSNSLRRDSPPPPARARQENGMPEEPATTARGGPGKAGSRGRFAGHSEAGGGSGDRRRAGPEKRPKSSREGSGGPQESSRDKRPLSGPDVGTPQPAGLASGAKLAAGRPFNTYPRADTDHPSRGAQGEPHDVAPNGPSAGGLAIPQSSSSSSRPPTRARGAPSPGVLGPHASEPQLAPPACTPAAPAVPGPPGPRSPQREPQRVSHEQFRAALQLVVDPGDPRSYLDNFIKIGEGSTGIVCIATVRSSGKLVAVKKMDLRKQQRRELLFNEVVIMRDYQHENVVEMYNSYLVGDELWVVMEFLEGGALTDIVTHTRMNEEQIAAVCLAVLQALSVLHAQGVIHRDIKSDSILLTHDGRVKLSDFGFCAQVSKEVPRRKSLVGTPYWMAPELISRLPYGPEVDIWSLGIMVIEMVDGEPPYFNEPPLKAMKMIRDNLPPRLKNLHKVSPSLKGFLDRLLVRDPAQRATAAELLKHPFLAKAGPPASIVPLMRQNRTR

ROCK2 (rat) = conditions: accession and sequence are those of the human protein
MKNK2 (human) = MKNK2 (human) (UniProt Q9HBH9)
PIM2 (human) = PIM2 (human) (UniProt Q9P1W9); conditions: compound 1.0 µM
MAPK8 (human) = MAPK8 (human) (UniProt P45983)
Sequence of MAPK8 (human) (P45983 whole entry, looked up): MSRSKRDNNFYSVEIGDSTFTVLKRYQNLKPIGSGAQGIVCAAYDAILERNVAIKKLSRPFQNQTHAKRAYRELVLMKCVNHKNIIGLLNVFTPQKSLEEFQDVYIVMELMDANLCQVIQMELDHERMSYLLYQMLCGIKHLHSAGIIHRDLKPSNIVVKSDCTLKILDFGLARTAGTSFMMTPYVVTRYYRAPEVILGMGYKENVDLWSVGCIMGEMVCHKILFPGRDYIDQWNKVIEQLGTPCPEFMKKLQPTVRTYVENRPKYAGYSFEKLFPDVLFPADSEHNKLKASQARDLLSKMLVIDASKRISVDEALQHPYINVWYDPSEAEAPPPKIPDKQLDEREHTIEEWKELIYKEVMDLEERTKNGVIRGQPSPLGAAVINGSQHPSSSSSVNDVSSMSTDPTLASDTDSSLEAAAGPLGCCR

IKBKE (human) = IKBKE (human) (UniProt Q14164)
DYRK1A (human) = DYRK1A (human) (UniProt Q13627)
MAPKAPK3 (human) = MAPKAPK3 (human) (UniProt Q16644)
MAPK11 (human) = MAPK11 (human) (UniProt Q15759)
EPHB3 (human) = EPHB3 (human) (UniProt P54753)
Sequence of EPHB3 (human) (P54753 whole entry, looked up): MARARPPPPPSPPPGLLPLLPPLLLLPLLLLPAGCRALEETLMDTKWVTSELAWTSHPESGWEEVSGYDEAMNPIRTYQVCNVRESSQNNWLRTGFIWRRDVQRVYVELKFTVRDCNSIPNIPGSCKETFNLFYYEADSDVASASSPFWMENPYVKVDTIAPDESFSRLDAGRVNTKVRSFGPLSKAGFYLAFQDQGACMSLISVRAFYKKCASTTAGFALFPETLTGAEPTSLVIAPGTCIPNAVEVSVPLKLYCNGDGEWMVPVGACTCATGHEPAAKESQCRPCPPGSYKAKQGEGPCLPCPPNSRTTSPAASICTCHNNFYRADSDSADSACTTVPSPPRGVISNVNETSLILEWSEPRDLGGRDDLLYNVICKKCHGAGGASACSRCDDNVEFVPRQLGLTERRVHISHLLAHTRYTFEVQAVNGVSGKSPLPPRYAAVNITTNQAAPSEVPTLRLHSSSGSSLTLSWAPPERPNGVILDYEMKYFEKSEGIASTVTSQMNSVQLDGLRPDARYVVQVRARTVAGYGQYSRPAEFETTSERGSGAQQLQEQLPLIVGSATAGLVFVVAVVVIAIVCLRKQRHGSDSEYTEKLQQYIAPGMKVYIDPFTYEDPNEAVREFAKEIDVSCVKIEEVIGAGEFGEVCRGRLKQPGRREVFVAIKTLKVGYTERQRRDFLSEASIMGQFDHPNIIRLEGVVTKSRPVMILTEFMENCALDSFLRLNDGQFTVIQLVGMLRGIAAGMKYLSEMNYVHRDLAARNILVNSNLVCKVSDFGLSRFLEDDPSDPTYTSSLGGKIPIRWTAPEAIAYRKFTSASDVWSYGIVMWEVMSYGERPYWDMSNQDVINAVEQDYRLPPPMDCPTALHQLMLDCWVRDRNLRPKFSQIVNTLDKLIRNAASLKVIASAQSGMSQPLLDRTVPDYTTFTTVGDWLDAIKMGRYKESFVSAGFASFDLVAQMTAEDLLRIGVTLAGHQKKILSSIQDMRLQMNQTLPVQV

PLK1 (human) = PLK1 (human) (UniProt P53350)
MAPK12 (human) = MAPK12 (human) (UniProt P53778)
Sequence of MAPK12 (human) (P53778 whole entry, looked up): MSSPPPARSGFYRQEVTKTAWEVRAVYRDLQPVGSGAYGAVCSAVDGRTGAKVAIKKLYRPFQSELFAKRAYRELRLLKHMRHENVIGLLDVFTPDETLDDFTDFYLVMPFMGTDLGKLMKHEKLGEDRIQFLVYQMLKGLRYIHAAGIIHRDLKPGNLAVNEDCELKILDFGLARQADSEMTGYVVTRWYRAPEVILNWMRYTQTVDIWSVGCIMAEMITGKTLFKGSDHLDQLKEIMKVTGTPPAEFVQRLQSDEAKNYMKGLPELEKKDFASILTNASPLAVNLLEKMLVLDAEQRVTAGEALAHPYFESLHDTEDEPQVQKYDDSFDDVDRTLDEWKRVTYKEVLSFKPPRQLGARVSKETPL

CSNK2A1 (human) = CSNK2A1 (human) (UniProt P68400)
MAP3K11 (human) = MAP3K11 (human) (UniProt Q16584)
Sequence of MAP3K11 (human) (Q16584 whole entry, looked up): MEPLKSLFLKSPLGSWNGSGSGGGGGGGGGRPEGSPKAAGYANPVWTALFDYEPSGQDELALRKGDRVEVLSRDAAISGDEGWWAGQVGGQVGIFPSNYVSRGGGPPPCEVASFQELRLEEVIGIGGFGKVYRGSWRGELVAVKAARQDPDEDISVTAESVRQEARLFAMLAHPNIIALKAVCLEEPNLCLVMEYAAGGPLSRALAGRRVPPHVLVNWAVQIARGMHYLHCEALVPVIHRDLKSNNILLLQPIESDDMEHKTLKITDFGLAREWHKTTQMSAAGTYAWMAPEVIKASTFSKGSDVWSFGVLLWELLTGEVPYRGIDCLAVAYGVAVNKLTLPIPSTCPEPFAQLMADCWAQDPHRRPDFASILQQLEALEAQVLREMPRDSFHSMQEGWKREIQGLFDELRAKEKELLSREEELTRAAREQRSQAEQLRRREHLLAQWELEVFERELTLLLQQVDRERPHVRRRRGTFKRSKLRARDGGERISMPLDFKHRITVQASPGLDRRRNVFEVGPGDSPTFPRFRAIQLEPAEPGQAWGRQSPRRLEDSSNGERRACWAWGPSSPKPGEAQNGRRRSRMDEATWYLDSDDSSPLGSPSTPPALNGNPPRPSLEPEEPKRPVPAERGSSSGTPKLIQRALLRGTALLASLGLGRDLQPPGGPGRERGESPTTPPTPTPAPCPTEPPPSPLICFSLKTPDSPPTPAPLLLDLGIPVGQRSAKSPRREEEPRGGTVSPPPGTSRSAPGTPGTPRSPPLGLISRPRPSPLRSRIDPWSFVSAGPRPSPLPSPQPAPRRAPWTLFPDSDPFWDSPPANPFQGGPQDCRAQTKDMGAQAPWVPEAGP

MAPKAPK5 (human) = MAPKAPK5 (human) (UniProt Q8IW41)
PIM1 (human) = PIM1 (human) (UniProt P11309)
Sequence of PIM1 (human) (P11309 whole entry, looked up): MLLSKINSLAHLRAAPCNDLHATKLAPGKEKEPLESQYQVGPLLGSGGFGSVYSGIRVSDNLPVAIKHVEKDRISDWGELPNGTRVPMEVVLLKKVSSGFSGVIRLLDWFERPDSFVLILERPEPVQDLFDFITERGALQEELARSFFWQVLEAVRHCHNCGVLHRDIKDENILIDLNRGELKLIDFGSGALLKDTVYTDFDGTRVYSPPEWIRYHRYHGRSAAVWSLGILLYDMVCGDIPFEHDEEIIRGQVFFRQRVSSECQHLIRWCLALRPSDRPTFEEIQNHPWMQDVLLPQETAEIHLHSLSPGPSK

DAPK1 (human) = DAPK1 (human) (UniProt P53355)
DYRK3 (human) = DYRK3 (human) (UniProt O43781)
TBK1 (human) = TBK1 (human) (UniProt Q9UHD2)

COc1ccc(N(C(=O)Nc2c(C)cccc2C)c2cc(Nc3ccc(N4CCN(C)CC4)cc3)ncn2)c(OC)c1
residual activity (RPS6KA3 KD1 KD2 (human); compound 0.01 µM): 100% | residual activity (RPS6KA3 KD1 KD2 (human); compound 0.1 µM): 92% | residual activity (RPS6KA3 KD1 KD2 (human); compound 1.0 µM): 54% | residual activity ([1]; compound 0.01 µM): 88% | residual activity ([1]; compound 0.1 µM): 99% | residual activity ([1]; compound 1.0 µM): 93% | residual activity (NTRK1 (human); compound 0.01 µM): 98% | residual activity (NTRK1 (human); compound 1.0 µM): 89% | residual activity (CLK2 (human); compound 0.01 µM): 97% | residual activity (CLK2 (human); compound 0.1 µM): 100% | residual activity (CLK2 (human); compound 1.0 µM): 108% | residual activity (MAP2K6 (human); compound 0.1 µM): 101% | residual activity (MAP2K6 (human); compound 1.0 µM): 92% | residual activity (MAP3K7 TAB1 (human); compound 0.1 µM): 110% | residual activity (MAP3K7 TAB1 (human); compound 1.0 µM): 84% | residual activity ([2]; compound 0.01 µM): 94% | residual activity ([2]; compound 1.0 µM): 93% | residual activity (MAPK3 (human); compound 0.01 µM): 104% | residual activity (MAPK3 (human); compound 0.1 µM): 101% | residual activity (MAPK3 (human); compound 1.0 µM): 95% | residual activity (PIM3 (human); compound 0.01 µM): 103% | residual activity (PIM3 (human); compound 0.1 µM): 110% | residual activity (PIM3 (human); compound 1.0 µM): 103% | residual activity (BRSK2 (human); compound 0.1 µM): 97% | residual activity (BRSK2 (human); compound 1.0 µM): 88% | residual activity (RPS6KA1 KD1 KD2 (human); compound 0.01 µM): 106% | residual activity (RPS6KA1 KD1 KD2 (human); compound 0.1 µM): 91% | residual activity (RPS6KA1 KD1 KD2 (human); compound 1.0 µM): 38% | residual activity (STK3 (human); compound 0.01 µM): 112% | residual activity (STK3 (human); compound 0.1 µM): 109% | residual activity (STK3 (human); compound 1.0 µM): 118% | residual activity (IRAK4 (human); compound 0.01 µM): 90% | residual activity (IRAK4 (human); compound 0.1 µM): 97% | residual activity (IRAK4 (human); compound 1.0 µM): 90% | residual activity (IKBKB (human); compound 0.01 µM): 83% | residual activity (IKBKB (human); compound 0.1 µM): 95% | residual activity (IKBKB (human); compound 1.0 µM): 99% | residual activity ([3]; compound 0.01 µM): 98% | residual activity ([3]; compound 0.1 µM): 92% | residual activity ([3]; compound 1.0 µM): 91% | residual activity (MAPK14 (human); compound 0.01 µM): 121% | residual activity (MAPK14 (human); compound 0.1 µM): 79% | residual activity (MAPK14 (human); compound 1.0 µM): 26% | residual activity (PAK4 (human); compound 0.01 µM): 116% | residual activity (PAK4 (human); compound 0.1 µM): 97% | residual activity (PAK4 (human); compound 1.0 µM): 94% | residual activity (ROCK2 (rat); compound 0.01 µM): 90% | residual activity (ROCK2 (rat); compound 1.0 µM): 68% | residual activity (MKNK2 (human); compound 0.01 µM): 107% | residual activity (MKNK2 (human); compound 0.1 µM): 107% | residual activity (MKNK2 (human); compound 1.0 µM): 102% | residual activity (PIM2 (human)): 117% | residual activity (MAPK8 (human); compound 0.01 µM): 94% | residual activity (MAPK8 (human); compound 0.1 µM): 107% | residual activity (MAPK8 (human); compound 1.0 µM): 86% | residual activity (IKBKE (human); compound 0.1 µM): 94% | residual activity (IKBKE (human); compound 1.0 µM): 102% | residual activity (DYRK1A (human); compound 0.01 µM): 100% | residual activity (DYRK1A (human); compound 0.1 µM): 95% | residual activity (DYRK1A (human); compound 1.0 µM): 93% | residual activity (MAPKAPK3 (human); compound 0.01 µM): 96% | residual activity (MAPKAPK3 (human); compound 0.1 µM): 90% | residual activity (MAPKAPK3 (human); compound 1.0 µM): 75% | residual activity (MAPK11 (human); compound 0.01 µM): 89% | residual activity (MAPK11 (human); compound 0.1 µM): 42% | residual activity (MAPK11 (human); compound 1.0 µM): 19% | residual activity (EPHB3 (human); compound 0.01 µM): 108% | residual activity (EPHB3 (human); compound 0.1 µM): 61% | residual activity (EPHB3 (human); compound 1.0 µM): 18% | residual activity (PLK1 (human); compound 0.01 µM): 98% | residual activity (PLK1 (human); compound 0.1 µM): 102% | residual activity (PLK1 (human); compound 1.0 µM): 97% | residual activity (MAPK12 (human); compound 0.01 µM): 110% | residual activity (MAPK12 (human); compound 0.1 µM): 112% | residual activity (MAPK12 (human); compound 1.0 µM): 105% | residual activity (CSNK2A1 (human); compound 0.01 µM): 98% | residual activity (CSNK2A1 (human); compound 0.1 µM): 100% | residual activity (CSNK2A1 (human); compound 1.0 µM): 100% | residual activity (MAP3K11 (human); compound 0.01 µM): 105% | residual activity (MAP3K11 (human); compound 0.1 µM): 100% | residual activity (MAP3K11 (human); compound 1.0 µM): 70% | residual activity (MAPKAPK5 (human); compound 0.01 µM): 119% | residual activity (MAPKAPK5 (human); compound 0.1 µM): 115% | residual activity (MAPKAPK5 (human); compound 1.0 µM): 125% | residual activity (PIM1 (human); compound 0.01 µM): 107% | residual activity (PIM1 (human); compound 0.1 µM): 113% | residual activity (PIM1 (human); compound 1.0 µM): 111% | residual activity (DAPK1 (human); compound 0.1 µM): 88% | residual activity (DAPK1 (human); compound 1.0 µM): 96% | residual activity (DYRK3 (human); compound 0.01 µM): 92% | residual activity (DYRK3 (human); compound 0.1 µM): 92% | residual activity (DYRK3 (human); compound 1.0 µM): 97% | residual activity (TBK1 (human); compound 0.01 µM): 101% | residual activity (TBK1 (human); compound 0.1 µM): 91% | residual activity (TBK1 (human); compound 1.0 µM): 91%
